The values that follow come from PMC7180948, “New Insights into 4-Anilinoquinazolines as Inhibitors of Cardiac Troponin I–Interacting Kinase (TNNi3K)” (Molecules, 2020).

Holding throughout (assay): biochemical
Common to all, as to parameters: KINOMEscan competition binding panel (Eurofins DiscoverX), single concentration, % inhibition
Settings in all cases: read-out: 7 at 1 µM % inhibition

The target of assay [1] is T1, ABL1(F317I)-nonphosphorylated (Homo sapiens, UniProt P00519, F317I).
T1 construct: nonphosphorylated
As for the experimental part: (§1) KinomeScan® Assay on 7 and 15 was performed as previously described by EuroFins DiscoverX [24]. GSK114 (7) and 15 were submitted for a KINOMEscan® assay to explore the selectivity profile across >400 human kinases at a compound concentration of 1 µM. […] GSK114 (7) is a narrow-spectrum TNNi3K inhibitor but has some potent off-targets including GAK which has been previously reported for this chemotype. […] If utilized together this set of compounds could be useful to investigate TNNi3K biology.

The target of the next assay is T2, ABL1-nonphosphorylated (Homo sapiens, UniProt P00519).
T2 construct: nonphosphorylated
As for the experimental part:
as §1

The target of another assay is ANKK1 (Homo sapiens, UniProt Q8NFD2). The method, then: as §1
Another assay deals with T3, ASK1 (Homo sapiens, UniProt Q99683).
T3 construct: gene MAP3K5
The method, then: as §1

For another assay, the target named is BMPR1B (Homo sapiens, UniProt O00238). As for the experimental part: as §1
For the next assay, the target named is CSNK1A1L (Homo sapiens, UniProt Q8N752). As for the experimental part: as §1
Another assay addresses CSNK1G3 (Homo sapiens, UniProt Q9Y6M4). As for the experimental part: as §1
The target in the next assay is IRAK4 (Homo sapiens, UniProt Q9NWZ3). As for the experimental part:
as §1

For assay [2], the target named is T4, JAK3(JH1domain-catalytic) (Homo sapiens, UniProt P52333).
T4 construct: JH1domain-catalytic
The method, then: as §1

In the next assay the target is KIT(D816H) (Homo sapiens, UniProt P10721, D816H). As for the experimental part: as §1
The next assay has as its target MARK1 (Homo sapiens, UniProt Q9P0L2). The method, then:
as §1

Another assay deals with MUSK (Homo sapiens, UniProt O15146). The method, then:
as §1

In another assay the target is T5, NDR2 (Homo sapiens, UniProt Q9Y2H1).
T5 construct: gene STK38L
The method, then:
as §1

A further assay has as its target NEK9 (Homo sapiens, UniProt Q8TD19). The method, then:
as §1

A further assay addresses T6, PCTK1 (Homo sapiens, UniProt Q00536).
T6 construct: gene CDK16
The method, then: as §1

A further assay has as its target T7, PCTK3 (Homo sapiens, UniProt Q07002).
T7 construct: gene CDK18
As for the experimental part: as §1

A further assay deals with PRKCQ (Homo sapiens, UniProt Q04759). As for the experimental part:
as §1

For assay [3], the target named is T8, RPS6KA4(Kin.Dom.1-N-terminal) (Homo sapiens, UniProt O75676).
T8 construct: Kin.Dom.1-N-terminal
As for the experimental part: as §1

The target in assay [4] is T9, RSK4(Kin.Dom.1-N-terminal) (Homo sapiens, UniProt Q9UK32).
T9 construct: gene RPS6KA6; Kin.Dom.1-N-terminal
As for the experimental part: as §1

The next assay addresses T10, SNARK (Homo sapiens, UniProt Q9H093).
T10 construct: gene NUAK2
As for the experimental part:
as §1

The next assay concerns the target STK33 (Homo sapiens, UniProt Q9BYT3). As for the experimental part: as §1
The next assay addresses TXK (Homo sapiens, UniProt P42681). The method, then: as §1
Another assay addresses T11, YES (Homo sapiens, UniProt P07947).
T11 construct: gene YES1
The method, then:
as §1

Another assay has as its target T12, YSK1 (Homo sapiens, UniProt O00506).
T12 construct: gene STK25
The method, then: as §1

In general, inhibition refers to the percentage by which the read-out fell short of the control.

T2 sequence (P00519 whole entry): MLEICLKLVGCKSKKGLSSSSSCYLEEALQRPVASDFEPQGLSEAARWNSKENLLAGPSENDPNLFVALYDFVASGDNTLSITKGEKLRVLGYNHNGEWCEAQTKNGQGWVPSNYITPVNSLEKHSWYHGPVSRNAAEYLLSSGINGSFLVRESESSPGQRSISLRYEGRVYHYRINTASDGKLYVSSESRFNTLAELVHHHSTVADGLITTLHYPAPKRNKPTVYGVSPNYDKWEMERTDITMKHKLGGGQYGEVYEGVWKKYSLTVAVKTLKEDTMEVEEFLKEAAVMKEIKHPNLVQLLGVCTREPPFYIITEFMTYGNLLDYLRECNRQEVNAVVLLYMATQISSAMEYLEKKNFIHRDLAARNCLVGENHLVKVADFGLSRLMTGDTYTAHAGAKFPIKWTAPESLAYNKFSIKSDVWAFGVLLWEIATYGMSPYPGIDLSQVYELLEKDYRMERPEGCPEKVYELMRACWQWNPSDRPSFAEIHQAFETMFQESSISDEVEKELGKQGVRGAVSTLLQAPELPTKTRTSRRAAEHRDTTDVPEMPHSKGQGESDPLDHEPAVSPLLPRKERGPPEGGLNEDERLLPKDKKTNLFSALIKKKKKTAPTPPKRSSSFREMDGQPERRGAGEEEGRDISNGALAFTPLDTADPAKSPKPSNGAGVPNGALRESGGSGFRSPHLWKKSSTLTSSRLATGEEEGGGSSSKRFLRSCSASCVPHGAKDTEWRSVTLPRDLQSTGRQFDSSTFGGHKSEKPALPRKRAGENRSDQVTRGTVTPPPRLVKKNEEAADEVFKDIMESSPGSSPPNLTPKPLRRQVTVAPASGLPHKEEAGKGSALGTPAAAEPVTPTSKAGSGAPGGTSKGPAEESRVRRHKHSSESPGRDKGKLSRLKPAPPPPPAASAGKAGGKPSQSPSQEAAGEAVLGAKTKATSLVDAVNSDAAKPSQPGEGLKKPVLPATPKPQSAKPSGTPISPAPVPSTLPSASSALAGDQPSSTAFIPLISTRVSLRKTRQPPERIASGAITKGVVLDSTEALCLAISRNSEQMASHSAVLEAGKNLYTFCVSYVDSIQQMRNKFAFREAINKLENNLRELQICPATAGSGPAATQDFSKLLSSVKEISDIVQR
Sequence of IRAK4 (Q9NWZ3 whole entry): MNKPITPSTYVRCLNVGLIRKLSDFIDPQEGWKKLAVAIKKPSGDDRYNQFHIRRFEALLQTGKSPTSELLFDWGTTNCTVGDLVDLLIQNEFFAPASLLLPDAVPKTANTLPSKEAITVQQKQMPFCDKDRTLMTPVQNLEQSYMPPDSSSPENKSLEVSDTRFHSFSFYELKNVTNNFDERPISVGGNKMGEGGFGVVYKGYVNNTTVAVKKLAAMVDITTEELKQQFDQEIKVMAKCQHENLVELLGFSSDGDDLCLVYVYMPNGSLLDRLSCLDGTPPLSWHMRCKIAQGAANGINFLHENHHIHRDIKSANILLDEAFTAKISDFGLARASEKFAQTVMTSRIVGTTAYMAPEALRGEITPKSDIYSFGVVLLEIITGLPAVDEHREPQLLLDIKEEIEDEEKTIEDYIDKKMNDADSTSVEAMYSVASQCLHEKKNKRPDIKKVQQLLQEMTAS
T5 sequence (Q9Y2H1 whole entry): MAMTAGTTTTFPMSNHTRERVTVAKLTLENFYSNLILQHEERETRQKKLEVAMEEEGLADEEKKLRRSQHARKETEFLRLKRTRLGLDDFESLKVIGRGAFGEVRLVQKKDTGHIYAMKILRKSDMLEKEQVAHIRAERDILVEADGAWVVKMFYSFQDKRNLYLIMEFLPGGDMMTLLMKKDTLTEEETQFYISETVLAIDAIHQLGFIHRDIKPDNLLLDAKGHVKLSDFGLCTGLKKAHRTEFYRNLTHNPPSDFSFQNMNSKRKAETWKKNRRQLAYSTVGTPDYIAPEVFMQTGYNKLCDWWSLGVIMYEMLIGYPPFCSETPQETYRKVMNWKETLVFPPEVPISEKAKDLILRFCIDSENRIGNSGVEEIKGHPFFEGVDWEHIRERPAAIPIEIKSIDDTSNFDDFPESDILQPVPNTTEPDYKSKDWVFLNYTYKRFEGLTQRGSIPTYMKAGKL
Sequence of PRKCQ (Q04759 whole entry): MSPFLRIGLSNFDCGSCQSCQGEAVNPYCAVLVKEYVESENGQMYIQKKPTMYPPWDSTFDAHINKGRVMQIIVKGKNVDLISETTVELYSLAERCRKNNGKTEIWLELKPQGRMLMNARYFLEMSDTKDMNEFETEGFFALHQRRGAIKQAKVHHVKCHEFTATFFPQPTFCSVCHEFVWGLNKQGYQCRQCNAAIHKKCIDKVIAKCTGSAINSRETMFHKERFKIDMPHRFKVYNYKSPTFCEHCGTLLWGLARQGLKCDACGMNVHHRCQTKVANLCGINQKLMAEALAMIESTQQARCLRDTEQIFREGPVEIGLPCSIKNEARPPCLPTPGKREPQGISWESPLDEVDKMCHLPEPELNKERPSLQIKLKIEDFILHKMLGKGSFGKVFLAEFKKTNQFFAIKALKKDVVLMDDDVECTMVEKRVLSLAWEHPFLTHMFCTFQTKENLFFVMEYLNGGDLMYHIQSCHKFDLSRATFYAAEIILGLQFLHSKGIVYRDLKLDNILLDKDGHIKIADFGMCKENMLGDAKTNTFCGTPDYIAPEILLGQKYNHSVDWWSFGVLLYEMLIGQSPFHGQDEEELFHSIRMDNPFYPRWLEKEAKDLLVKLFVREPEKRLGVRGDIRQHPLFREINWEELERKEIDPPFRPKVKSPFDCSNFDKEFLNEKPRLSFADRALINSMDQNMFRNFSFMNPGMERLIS
T7 sequence (Q07002 whole entry): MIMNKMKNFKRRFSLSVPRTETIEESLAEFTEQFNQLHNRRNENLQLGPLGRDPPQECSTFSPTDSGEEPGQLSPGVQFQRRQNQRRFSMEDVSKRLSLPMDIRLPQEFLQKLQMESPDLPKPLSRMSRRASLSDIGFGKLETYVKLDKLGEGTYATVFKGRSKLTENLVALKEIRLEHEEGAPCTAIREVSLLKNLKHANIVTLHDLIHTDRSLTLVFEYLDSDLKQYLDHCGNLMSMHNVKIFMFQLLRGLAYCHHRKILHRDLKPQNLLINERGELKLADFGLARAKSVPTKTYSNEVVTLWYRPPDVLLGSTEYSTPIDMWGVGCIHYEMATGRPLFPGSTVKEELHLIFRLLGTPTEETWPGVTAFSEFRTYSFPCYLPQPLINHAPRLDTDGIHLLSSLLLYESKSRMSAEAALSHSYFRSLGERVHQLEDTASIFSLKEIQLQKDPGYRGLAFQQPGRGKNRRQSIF
T10 sequence (Q9H093 whole entry): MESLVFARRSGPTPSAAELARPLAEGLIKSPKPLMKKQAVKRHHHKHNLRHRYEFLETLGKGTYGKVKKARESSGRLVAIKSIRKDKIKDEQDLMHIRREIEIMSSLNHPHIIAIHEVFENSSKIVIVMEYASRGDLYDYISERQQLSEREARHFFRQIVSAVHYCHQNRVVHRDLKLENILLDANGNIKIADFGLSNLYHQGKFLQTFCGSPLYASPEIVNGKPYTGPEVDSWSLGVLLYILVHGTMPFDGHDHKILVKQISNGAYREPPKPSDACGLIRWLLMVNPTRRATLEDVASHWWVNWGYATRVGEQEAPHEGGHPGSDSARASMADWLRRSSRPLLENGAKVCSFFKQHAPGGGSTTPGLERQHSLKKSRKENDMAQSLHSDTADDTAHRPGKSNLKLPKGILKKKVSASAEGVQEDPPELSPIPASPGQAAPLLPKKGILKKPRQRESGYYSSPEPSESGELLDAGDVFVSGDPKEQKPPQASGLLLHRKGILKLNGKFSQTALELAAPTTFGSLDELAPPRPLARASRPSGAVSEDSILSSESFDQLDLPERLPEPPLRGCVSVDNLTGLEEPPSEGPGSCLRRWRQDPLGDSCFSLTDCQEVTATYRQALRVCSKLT
Sequence of CSNK1G3 (Q9Y6M4 whole entry): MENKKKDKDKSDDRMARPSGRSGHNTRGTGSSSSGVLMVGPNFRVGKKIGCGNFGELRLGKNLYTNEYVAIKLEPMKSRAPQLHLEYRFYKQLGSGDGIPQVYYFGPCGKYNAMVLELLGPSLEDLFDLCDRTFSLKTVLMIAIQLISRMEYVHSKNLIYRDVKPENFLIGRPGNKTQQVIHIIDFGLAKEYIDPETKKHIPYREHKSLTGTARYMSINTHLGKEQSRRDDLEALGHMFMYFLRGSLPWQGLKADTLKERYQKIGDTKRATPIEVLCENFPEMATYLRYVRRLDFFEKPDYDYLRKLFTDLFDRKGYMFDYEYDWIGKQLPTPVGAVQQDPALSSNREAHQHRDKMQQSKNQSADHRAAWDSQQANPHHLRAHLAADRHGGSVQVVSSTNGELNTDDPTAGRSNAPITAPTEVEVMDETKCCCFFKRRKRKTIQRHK
Sequence of STK33 (Q9BYT3 whole entry): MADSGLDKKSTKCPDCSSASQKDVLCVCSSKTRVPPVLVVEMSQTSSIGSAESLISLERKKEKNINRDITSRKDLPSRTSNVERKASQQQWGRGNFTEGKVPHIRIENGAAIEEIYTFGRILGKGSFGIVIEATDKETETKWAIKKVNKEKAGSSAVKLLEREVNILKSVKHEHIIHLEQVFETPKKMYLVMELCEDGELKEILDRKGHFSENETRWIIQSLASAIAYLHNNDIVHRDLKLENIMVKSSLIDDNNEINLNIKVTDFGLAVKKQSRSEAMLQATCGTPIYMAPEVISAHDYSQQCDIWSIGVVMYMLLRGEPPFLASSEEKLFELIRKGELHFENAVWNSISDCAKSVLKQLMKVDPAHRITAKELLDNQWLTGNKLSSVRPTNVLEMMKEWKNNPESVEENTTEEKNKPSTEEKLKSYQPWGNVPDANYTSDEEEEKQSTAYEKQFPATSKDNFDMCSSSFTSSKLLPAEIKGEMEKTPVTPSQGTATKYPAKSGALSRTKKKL
T1 sequence (P00519 whole entry F317I): as the sequence (P00519 whole entry) above, with F317I counted along it

Turning to `CNS(=O)(=O)c1ccc(N(C)C)c(Nc2ncnc3cc(OC)c(OC)cc23)c1` [compound 7, 3-((6,7-dimethoxyquinazolin-4-yl)amino)-4-(dimethylamino)-N-methylbenzenesulfonamide], the inhibition at 1 µM was 1% in assay [1]; 21% at ABL1-nonphosphorylated; 19% at ANKK1; 0% on ASK1; 34% on BMPR1B; 0% on CSNK1A1L. Moreover, the inhibition at 1 µM stood at 11% at CSNK1G3; 56% on IRAK4; 17% in assay [2]; 100% at KIT(D816H); 7% on MARK1; 0% at MUSK. The inhibition at 1 µM on NDR2 came out at 9%; at NEK9, 0%; at PCTK1, 13%; on PCTK3, 0%; on PRKCQ, 28%; in [3] it was 4%. Moreover, the inhibition at 1 µM in assay [4] came to 34%; at SNARK, 0%; on STK33, 6%; at TXK, 0%; on YES, 0%; on YSK1, 5%.
